From PubChem BioAssay AID200 (DTP/NCI, 2004)
Where “and” joins values, the source holds several entries; their conditions need not be identical. Equal entries are not always repeated. Toxic doses and inconclusive results are not listed. Where a SMILES comes first, the peptide text is derived from it. The star is where a group is joined. Cbz = O=C(OCc1ccccc1)*; Bn = c1ccc(C*)cc1

System: B6C3F1 mice, B16 melanoma ip, median survival T/C
Experiment: NCI In Vivo Anticancer Drug Screen. Data for tumor model B16 Melanoma (intraperitoneal) in B6C3F1 mice
Conditions: endpoint: median survival time, higher = longer survival
In short: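 Mice bearing transplanted tumor were dosed with compound or vehicle, and survival was recorded. Activity is expressed as the treated-group measurement (T) divided by the vehicle control measurement (C).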

[1] = dose: 12.5 mg/kg/injection, schedule: Q01DX009 (ip), vehicle: Klucel (hydroxypropylcellulose) (HPC)
[2] = dose: 25.0 mg/kg/injection, schedule: Q01DX009 (ip), vehicle: Klucel (hydroxypropylcellulose) (HPC)
[3] = dose: 50.0 mg/kg/injection, schedule: Q01DX009 (ip), vehicle: saline with Tween-80
[4] = dose: 100.0 mg/kg/injection, schedule: Q01DX009 (ip), vehicle: saline with Tween-80
[5] = dose: 200.0 mg/kg/injection, schedule: Q01DX009 (ip), vehicle: saline with Tween-80
[6] = dose: 400.0 mg/kg/injection, schedule: Q01DX009 (ip), vehicle: saline with Tween-80
[7] = dose: 25.0 mg/kg/injection, schedule: Q01DX009 (ip), vehicle: saline
[8] = dose: 50.0 mg/kg/injection, schedule: Q01DX009 (ip), vehicle: saline
[9] = dose: 100.0 mg/kg/injection, schedule: Q01DX009 (ip), vehicle: saline
[10] = dose: 6.25 mg/kg/injection, schedule: Q01DX009 (ip), vehicle: saline with Tween-80
[11] = dose: 12.5 mg/kg/injection, schedule: Q01DX009 (ip), vehicle: saline with Tween-80
[12] = dose: 25.0 mg/kg/injection, schedule: Q01DX009 (ip), vehicle: saline with Tween-80

Compound: COc1cccc(Sc2ccc([N+](=O)[O-])c3no[n+]([O-])c23)c1
- T/C (dose: 1.85 mg/kg/injection, schedule: Q01DX009 (ip), vehicle: saline with Tween-80): 111 % of control and 93 % of control
- T/C (dose: 3.75 mg/kg/injection, schedule: Q01DX009 (ip), vehicle: saline with Tween-80): 94 % of control and 101 % of control
- T/C (dose: 7.5 mg/kg/injection, schedule: Q01DX009 (ip), vehicle: saline with Tween-80): 92 % of control and 99 % of control
- T/C (dose: 15.0 mg/kg/injection, schedule: Q01DX009 (ip), vehicle: saline with Tween-80): 88 % of control and 91 % of control
- T/C (dose: 30.0 mg/kg/injection, schedule: Q01DX009 (ip), vehicle: saline with Tween-80): 88 % of control and 89 % of control and 95 % of control
- T/C (dose: 60.0 mg/kg/injection, schedule: Q01DX009 (ip), vehicle: saline with Tween-80): 91 % of control

Compound: CC(C)CC(NC(=O)CNC(=O)CNC(=O)OCc1ccccc1)C(=O)O (stereo not drawn)
- T/C (dose: 0.75 mg/kg/injection, schedule: Q01DX009 (ip), vehicle: Klucel (hydroxypropylcellulose) (HPC)): 103 % of control
- T/C (dose: 1.5 mg/kg/injection, schedule: Q01DX009 (ip), vehicle: Klucel (hydroxypropylcellulose) (HPC)): 107 % of control
- T/C (dose: 3.0 mg/kg/injection, schedule: Q01DX009 (ip), vehicle: Klucel (hydroxypropylcellulose) (HPC)): 95 % of control
- T/C (dose: 3.12 mg/kg/injection, schedule: Q01DX009 (ip), vehicle: Klucel (hydroxypropylcellulose) (HPC)): 101 % of control
- T/C (dose: 6.0 mg/kg/injection, schedule: Q01DX009 (ip), vehicle: Klucel (hydroxypropylcellulose) (HPC)): 106 % of control
- T/C (dose: 6.25 mg/kg/injection, schedule: Q01DX009 (ip), vehicle: Klucel (hydroxypropylcellulose) (HPC)): 92 % of control
- T/C (dose: 12.0 mg/kg/injection, schedule: Q01DX009 (ip), vehicle: Klucel (hydroxypropylcellulose) (HPC)): 101 % of control
- T/C [1]: 92 % of control
- T/C [2]: 115 % of control and 104 % of control
- T/C (dose: 50.0 mg/kg/injection, schedule: Q01DX009 (ip), vehicle: Klucel (hydroxypropylcellulose) (HPC)): 100 % of control
- T/C (dose: 100.0 mg/kg/injection, schedule: Q01DX009 (ip), vehicle: Klucel (hydroxypropylcellulose) (HPC)): 122 % of control
- T/C (dose: 200.0 mg/kg/injection, schedule: Q01DX009 (ip), vehicle: Klucel (hydroxypropylcellulose) (HPC)): 89 % of control
- T/C (dose: 400.0 mg/kg/injection, schedule: Q01DX009 (ip), vehicle: Klucel (hydroxypropylcellulose) (HPC)): 110 % of control

Compound: CCCC(C(CC)CNC(=O)Nc1cccc2ccccc12)N(C)C(=O)Nc1cccc2ccccc12 (stereo not drawn)
- T/C [3]: 99 % of control
- T/C [4]: 95 % of control
- T/C [5]: 102 % of control
- T/C [6]: 95 % of control

Compound: CCC1OCCN1C(C)C (stereo not drawn)
- T/C [7]: 107 % of control
- T/C [8]: 107 % of control
- T/C [9]: 98 % of control

Compound: COc1cccc2c1C(=O)c1c(O)c3c(c(O)c1C2=O)C[C@@](O)(C(=O)CO)C[C@@H]3OC1CC(N)CC(C)O1 (stereo partly drawn)
- T/C (dose: 0.18 mg/kg/injection, schedule: Q01DX009 (ip), vehicle: water): 174 % of control
- T/C (dose: 0.37 mg/kg/injection, schedule: Q01DX009 (ip), vehicle: water): 231 % of control
- T/C (dose: 0.38 mg/kg/injection, schedule: Q01DX009 (ip), vehicle: water): 175 % of control
- T/C (dose: 0.75 mg/kg/injection, schedule: Q01DX009 (ip), vehicle: water): 187 % of control and 238 % of control
- T/C (dose: 1.5 mg/kg/injection, schedule: Q01DX009 (ip), vehicle: water): 181 % of control and 187 % of control

Compound: O=[N+]([O-])O.[Ga]
- T/C (dose: 4.0 mg/kg/injection, schedule: Q01DX009 (ip), vehicle: saline): 105 % of control
- T/C (dose: 4.0 mg/kg/injection, schedule: Q01DX009 (ip), vehicle: water): 99 % of control
- T/C (dose: 8.0 mg/kg/injection, schedule: Q01DX009 (ip), vehicle: saline): 98 % of control
- T/C (dose: 8.0 mg/kg/injection, schedule: Q01DX009 (ip), vehicle: water): 95 % of control
- T/C (dose: 16.0 mg/kg/injection, schedule: Q01DX009 (ip), vehicle: saline): 101 % of control
- T/C (dose: 16.0 mg/kg/injection, schedule: Q01DX009 (ip), vehicle: water): 100 % of control
- T/C [7]: 101 % of control
- T/C (dose: 32.0 mg/kg/injection, schedule: Q01DX009 (ip), vehicle: saline): 95 % of control
- T/C (dose: 32.0 mg/kg/injection, schedule: Q01DX009 (ip), vehicle: water): 97 % of control
- T/C [8]: 100 % of control
- T/C (dose: 64.0 mg/kg/injection, schedule: Q01DX009 (ip), vehicle: saline): 91 % of control
- T/C (dose: 64.0 mg/kg/injection, schedule: Q01DX009 (ip), vehicle: water): 96 % of control

Compound: CCOC1=Cc2c(oc3c(C(C)(C)C)cc(OCC)cc23)OC(C(C)(C)C)=C1
- T/C (dose: 1.56 mg/kg/injection, schedule: Q01DX009 (ip), vehicle: saline with Tween-80): 97 % of control and 107 % of control
- T/C (dose: 3.12 mg/kg/injection, schedule: Q01DX009 (ip), vehicle: saline with Tween-80): 97 % of control and 104 % of control
- T/C [10]: 102 % of control
- T/C [11]: 97 % of control and 106 % of control
- T/C [12]: 113 % of control and 91 % of control
- T/C [3]: 89 % of control and 101 % of control

Compound: CCOC(=O)c1c(C)c(C(=O)OCC)n(CC)c1C=O
- T/C [3]: 86 % of control
- T/C [4]: 89 % of control
- T/C [5]: 93 % of control

Compound: O=C(NC(CSCc1ccccc1)C(=O)NC(Cc1ccc(O)cc1)C(=O)O)OCc1ccccc1 (stereo not drawn) (Cbz-Cys(Bn)-Tyr-OH; configuration not given here)
- T/C [4]: 90 % of control
- T/C [5]: 101 % of control
- T/C [6]: 87 % of control

Compound: CC(C)CCCCCCCCCCCCC(=O)NCC(=O)NC1C(C)OC(Nc2ncnc3nc[nH]c23)C(O)C1O (stereo not drawn)
- T/C (dose: 0.25 mg/kg/injection, schedule: Q01DX008 (ip), vehicle: distilled water + Tween-80): 95 % of control
- T/C (dose: 0.25 mg/kg/injection, schedule: Q01DX009 (ip), vehicle: distilled water + Tween-80): 112 % of control
- T/C (dose: 0.5 mg/kg/injection, schedule: Q01DX008 (ip), vehicle: distilled water + Tween-80): 95 % of control
- T/C (dose: 0.5 mg/kg/injection, schedule: Q01DX009 (ip), vehicle: distilled water + Tween-80): 112 % of control
- T/C (dose: 1.0 mg/kg/injection, schedule: Q01DX008 (ip), vehicle: distilled water + Tween-80): 98 % of control
- T/C (dose: 2.0 mg/kg/injection, schedule: Q01DX008 (ip), vehicle: distilled water + Tween-80): 111 % of control

Compound: NC(=O)CC(NC(=O)OCC1c2ccccc2-c2ccccc21)C(=O)O (stereo not drawn)
- T/C [1]: 116 % of control
- T/C [2]: 107 % of control

Compound: c1ccc(OCC2CO2)c(OCC2CO2)c1 (stereo not drawn)
- T/C [11]: 108 % of control
- T/C [12]: 109 % of control and 114 % of control and 118 % of control
- T/C [4]: 150 % of control and 171 % of control
- T/C [5]: 219 % of control

Compound: CC(=O)N(C)c1ccc(Nc2cc(C)[nH]c3ccc4ncnc4c23)cc1
- T/C (dose: 6.25 mg/kg/injection, schedule: Q01DX009 (ip), vehicle: saline): 122 % of control
- T/C (dose: 12.5 mg/kg/injection, schedule: Q01DX009 (ip), vehicle: saline): 171 % of control and 178 % of control
- T/C [7]: 177 % of control and 198 % of control
- T/C [8]: 177 % of control and 184 % of control

Compound: Cn1c(-c2ccc(/C=N\N3CCN(/N=C/c4ccc(-c5c[n+]6ccsc6n5C)cc4)CC3)cc2)c[n+]2ccsc12
- T/C (dose: 0.75 mg/kg/injection, schedule: Q01DX009 (ip), vehicle: saline with Tween-80): 103 % of control
- T/C (dose: 1.5 mg/kg/injection, schedule: Q01DX009 (ip), vehicle: saline with Tween-80): 104 % of control
- T/C (dose: 3.0 mg/kg/injection, schedule: Q01DX009 (ip), vehicle: saline with Tween-80): 113 % of control
- T/C (dose: 6.0 mg/kg/injection, schedule: Q01DX009 (ip), vehicle: saline with Tween-80): 113 % of control

Compound: O=c1cc(-c2ccccc2)[nH]c2c1CCCC2
- T/C [4]: 109 % of control
- T/C [5]: 117 % of control

Compound: COc1ccc(C(=S)N2CCN(c3ccccc3)CC2)cc1
- T/C (dose: 3.13 mg/kg/injection, schedule: Q01DX009 (ip), vehicle: saline with Tween-80): 98 % of control
- T/C [10]: 91 % of control
- T/C [11]: 93 % of control
- T/C [12]: 101 % of control

Compound: Cc1ccc2c(c1)N=C(Nc1ccccc1)N=S2(C)=O (stereo not drawn)
- T/C [10]: 101 % of control
- T/C [11]: 87 % of control
- T/C [12]: 102 % of control
- T/C [3]: 96 % of control
- T/C [4]: 87 % of control
- T/C [5]: 90 % of control

Compound: O=NN(CCF)C(=O)NCCO
- T/C (dose: 15.0 mg/kg/injection, schedule: Q01DX001 (ip), vehicle: saline): 181 % of control
- T/C (dose: 30.0 mg/kg/injection, schedule: Q01DX001 (ip), vehicle: saline): 221 % of control
- T/C (dose: 60.0 mg/kg/injection, schedule: Q01DX001 (ip), vehicle: saline): 250 % of control

Compound: O=C(O)CSC(CC(=O)O)C(=O)O (stereo not drawn)
- T/C [7]: 94 % of control
- T/C [8]: 89 % of control
- T/C [9]: 94 % of control
